# Source: patent publication US20150141248A1, “ANTIFUNGAL COMPOSITIONS” (DSM IP ASSETS B.V., priority 2011, published 2015)
# Tests used:
# Fusarium proliferatum [1] = assay: Treatment of wounded bananas inoculated with Fusarium proliferatum (mould growth); format: in vivo; settings: for Number of moulded wounds/total number of 12 wounds: bananas 20° C.; for Observed antifungal activity O: bananas
# Description: Four organic, unripe (green) bananas were used per treatment. The peel of each banana was wounded thrice using a cork borer according to the method described by de Lapeyre de Bellaire and Dubois (1987). Subsequently, each wound was inoculated with 15 μl of a Fusarium proliferatum suspension containing 1×10^5 of spores/ml. […] In addition, the antifungal compositions comprised 1.00% (w/w) methylhydroxyethylcellulose (MHEC), 0.40% (w/w) xanthan gum, 0.20% (w/w) anti-foaming agent, 0.30% (w/w) citric acid, 0.39% (w/w) lactic acid and 0.11% (w/w) potassium sorbate. The pH of the composition was 4.0. […] The treated, unripe bananas were incubated in a closed box in the dark at 20° C. and a relative air humidity of 95%, which was obtained in the presence of a saturated Na2HPO4 aqueous solution. During the first 20 days of incubation, a ripe (yellow) banana was included in the closed box to elevate the ethylene gas level and thus induce ripening of the treated, unripe bananas. […]
# The expected antifungal activity (E in %) of the combined antifungal composition comprising both active ingredients was calculated according to the Colby equation (Colby, 1967): […]
# wherein X and Y are the observed antifungal activities (in %) of the individual active ingredients X and Y, respectively. If the observed antifungal activity (O in %) of the combination exceeds the expected antifungal activity (E in %) of the combination and the synergy factor O/E is thus >1.0, the combined application of the active ingredients leads to a synergistic antifungal effect.
# Botrytis cinerea [2] = assay: Treatment of wounded strawberries inoculated with Botrytis cinerea (mould growth); format: in vivo; settings: 250 ppm natamycin; for Number of moulded wounds/total number of 12 wounds (title: Number of moulded strawberries): strawberries 20° C.; for Observed antifungal activity O: strawberries
# Description: Twelve fresh, organic strawberries were used per treatment. Each strawberry was wounded with a 0.5 mm long cut and each wound was inoculated with 10 μl of a Botrytis cinerea suspension containing 1×10^5 of spores/ml. […] The antifungal compositions also comprised 1.00% (w/w) methylhydroxyethylcellulose (MHEC), 0.40% (w/w) xanthan gum, 0.20% (w/w) anti-foaming agent, 0.30% (w/w) citric acid, 0.39% (w/w) lactic acid and 0.11% (w/w) potassium sorbate. The pH of the composition was 4.0. A composition without natamycin or prothioconazole was used as control. The treated strawberries were incubated in a closed box in the dark at 20° C. for 3 days.
# After 2 and 3 days of incubation, the mould growth on the strawberries was assessed in a twofold manner: (i) the number of moulded strawberries per total of 12 strawberries was counted; and (ii) the antifungal activity (in %) of the individual and combined active ingredients was determined by calculating the reduction in mould growth observed on the strawberries treated with the antifungal composition in comparison to the mould growth on the strawberries treated with the control composition according to the Colby method described in Example 4 (Colby, 1967).
# Penicillium italicum = assay: Treatment of wounded mandarins inoculated with Penicillium italicum (mould growth); format: in vivo
# Description: Ten fresh, organic mandarins were used per treatment. The peel of each mandarin was wounded once using a cork borer according to the method described by de Lapeyre de Bellaire and Dubois (1987). Subsequently, each wound was inoculated with 10 μl of a Penicillium italicum suspension containing 1×10^4 of spores/ml. […] The pH of the composition was 4.0. […]
# Botrytis cinerea [3] = assay: In vitro antifungal activity, 96-well microtiter plates; format: cell-based; settings: in vitro 25° C.
# Description: The following compositions were tested: […] Subsequently, 100 μl of a Botrytis cinerea suspension prepared in PCB medium was used to inoculated each well with 2.5×10^3 spores/ml. […] The expected antifungal activity (E in %) of the active ingredient combination was calculated according to the Colby equation (Colby, 1967): […] wherein X and Y are the observed antifungal activities (in %) of the individual active ingredients X and Y, respectively.
# Fusarium proliferatum [4] = assay: as above; format: cell-based; settings: in vitro 25° C., natamycin 2.5 ppm
# Description: Subsequently, 100 μl of a Botrytis cinerea suspension prepared in PCB medium was used to inoculated each well with 2.5×10^3 spores/ml.
# , the in vitro antifungal activity (%) of the individual active ingredients was assessed by calculating the reduction in mould growth observed in the presence of the active ingredient in comparison to the mould growth observed in the absence of the active ingredient. The expected antifungal activity (E in %) of the active ingredient combination was calculated according to the Colby equation (Colby, 1967): […]
# The experiment was conducted as described in Example 13, except for the fact that the following compositions were tested:
# Furthermore, Fusarium proliferatum was used for inoculation. The antifungal activity (in %) of the individual and combined active ingredients was determined according to the method described in Example 13.
smiles,measurement,setting,value
"C[C@@H]1C/C=C/C=C/C=C/C=C/[C@H](O[C@@H]2O[C@H](C)[C@@H](O)[C@H](N)[C@@H]2O)C[C@@H]2O[C@](O)(C[C@@H](O)C[C@H]3O[C@@H]3/C=C/C(=O)O1)C[C@H](O)[C@H]2C(=O)O [Natamycin, natamycin]",Number of moulded wounds/total number of 12 wounds,"Fusarium proliferatum [1]; 50 ppm natamycin, 250 ppm propiconazole or both, Day 29",12/12
same,Number of moulded wounds/total number of 12 wounds,"Fusarium proliferatum [1]; 50 ppm natamycin, 250 ppm propiconazole or both, Day 32",12/12
same,Number of moulded wounds/total number of 12 wounds,"Fusarium proliferatum [1]; 50 ppm natamycin, 250 ppm propiconazole or both, Day 34",12/12
same,Number of moulded wounds/total number of 12 wounds,"Fusarium proliferatum [1]; 50 ppm natamycin, 250 ppm propiconazole or both, Day 36",12/12
same,Number of moulded wounds/total number of 12 wounds,"Fusarium proliferatum [1]; 50 ppm natamycin, 250 ppm propiconazole or both, Day 39",12/12
same,Number of moulded wounds/total number of 12 wounds,"Fusarium proliferatum [1]; 50 ppm natamycin, 250 ppm propiconazole or both, Day 42",12/12
same,Number of moulded wounds/total number of 12 wounds,"Fusarium proliferatum [1]; 250 ppm natamycin, 100 ppm prothioconazole or both, Day 27",12/12
same,Number of moulded wounds/total number of 12 wounds,"Fusarium proliferatum [1]; 250 ppm natamycin, 100 ppm prothioconazole or both, Day 28 and 29",12/12
same,Number of moulded wounds/total number of 12 wounds,"Fusarium proliferatum [1]; 250 ppm natamycin, 500 ppm propiconazole or both, Day 34",12/12
same,Number of moulded wounds/total number of 12 wounds,"Fusarium proliferatum [1]; 250 ppm natamycin, 500 ppm propiconazole or both, Day 36",12/12
same,Number of moulded wounds/total number of 12 wounds,"Fusarium proliferatum [1]; 500 ppm natamycin, 150 ppm propiconazole or both, Day 26",8/12
same,Number of moulded wounds/total number of 12 wounds,"Fusarium proliferatum [1]; 500 ppm natamycin, 150 ppm propiconazole or both, Day 26, listed as natamycin",8
same,Number of moulded wounds/total number of 12 wounds,"Fusarium proliferatum [1]; 500 ppm natamycin, 150 ppm propiconazole or both, Days 27-29",8/12
same,Number of moulded wounds/total number of 12 wounds,"Fusarium proliferatum [1]; 500 ppm natamycin, 150 ppm propiconazole or both, Days 27-29, listed as natamycin",8
same,Number of moulded wounds/total number of 12 wounds,"Fusarium proliferatum [1]; 500 ppm natamycin, 150 ppm propiconazole or both, Days 31-32",8/12
same,Number of moulded wounds/total number of 12 wounds,"Fusarium proliferatum [1]; 500 ppm natamycin, 150 ppm propiconazole or both, Days 31-32, listed as natamycin",8
same,Number of moulded wounds/total number of 12 wounds,"Fusarium proliferatum [1]; 500 ppm natamycin, 250 ppm prothioconazole or both, Day 27, 28 and 29",8/12
same,Number of moulded wounds/total number of 12 wounds,"Fusarium proliferatum [1]; 500 ppm natamycin, 250 ppm prothioconazole or both, Day 27, 28 and 29, listed as natamycin",8
same,Number of moulded wounds/total number of 12 wounds,"Fusarium proliferatum [1]; 500 ppm natamycin, 1000 ppm propiconazole or both, Day 39",12/12
same,Number of moulded wounds/total number of 12 wounds,"Fusarium proliferatum [1]; 500 ppm natamycin, 1000 ppm propiconazole or both, Day 42",12/12
same,Observed antifungal activity O,"Fusarium proliferatum [1]; 50 ppm natamycin, 250 ppm propiconazole or both, 29 days",4%
same,Observed antifungal activity O,"Fusarium proliferatum [1]; 50 ppm natamycin, 250 ppm propiconazole or both, 32 days",1%
same,Observed antifungal activity O,"Fusarium proliferatum [1]; 50 ppm natamycin, 250 ppm propiconazole or both, 34 days",1%
same,Observed antifungal activity O,"Fusarium proliferatum [1]; 50 ppm natamycin, 250 ppm propiconazole or both, 36 days",0%
same,Observed antifungal activity O,"Fusarium proliferatum [1]; 50 ppm natamycin, 250 ppm propiconazole or both, 39 days",0%
same,Observed antifungal activity O,"Fusarium proliferatum [1]; 50 ppm natamycin, 250 ppm propiconazole or both, 42 days",0%
same,Observed antifungal activity O,"Fusarium proliferatum [1]; 250 ppm natamycin, 50 ppm propiconazole or both, 23 days",23%
same,Observed antifungal activity O,"Fusarium proliferatum [1]; 250 ppm natamycin, 50 ppm propiconazole or both, 27 days",26%
same,Observed antifungal activity O,"Fusarium proliferatum [1]; 250 ppm natamycin, 50 ppm propiconazole or both, 29 days",29%
same,Observed antifungal activity O,"Fusarium proliferatum [1]; 250 ppm natamycin, 500 ppm propiconazole or both, 34 days",0%
same,Observed antifungal activity O,"Fusarium proliferatum [1]; 250 ppm natamycin, 500 ppm propiconazole or both, 36 days",0%
same,Observed antifungal activity O,"Fusarium proliferatum [1]; 250 ppm natamycin, 500 ppm propiconazole or both, 39 days",0%
same,Observed antifungal activity O,"Fusarium proliferatum [1]; 250 ppm natamycin, 500 ppm propiconazole or both, 42 days",0%
same,Observed antifungal activity O,"Fusarium proliferatum [1]; 500 ppm natamycin, 150 ppm propiconazole or both, 27 days",81%
same,Observed antifungal activity O,"Fusarium proliferatum [1]; 500 ppm natamycin, 150 ppm propiconazole or both, 28 days",81%
same,Observed antifungal activity O,"Fusarium proliferatum [1]; 500 ppm natamycin, 150 ppm propiconazole or both, 29 days",81%
same,Observed antifungal activity O,"Fusarium proliferatum [1]; 500 ppm natamycin, 150 ppm propiconazole or both, 31 days",74%
same,Observed antifungal activity O,"Fusarium proliferatum [1]; 500 ppm natamycin, 150 ppm propiconazole or both, 32 days",72%
same,Number of moulded wounds/total number of 12 wounds (title: Number of moulded strawberries),"Botrytis cinerea [2]; 500 ppm prothioconazole or both, Day 2",10/12
same,Number of moulded wounds/total number of 12 wounds (title: Number of moulded strawberries),"Botrytis cinerea [2]; 500 ppm prothioconazole or both, Day 2, listed as natamycin",10
same,Number of moulded wounds/total number of 12 wounds (title: Number of moulded strawberries),"Botrytis cinerea [2]; 500 ppm prothioconazole or both, Day 3",12/12
same,Number of moulded wounds/total number of 12 wounds (title: Number of moulded strawberries),"Botrytis cinerea [2]; 500 ppm prothioconazole or both, Day 3, listed as natamycin",12
same,Observed antifungal activity O,"Botrytis cinerea [2]; 500 ppm prothioconazole (row prints 50 ppm) or both, 3 days",24%
same,Observed antifungal activity O,"Botrytis cinerea [2]; 500 ppm prothioconazole or both, 2 days",31%
same,Observed antifungal activity O,"Penicillium italicum; 250 ppm natamycin, 150 ppm prothioconazole or both, 13 days",27%
same,Observed antifungal activity O,"Penicillium italicum; 250 ppm natamycin, 150 ppm prothioconazole or both, 21 days",6%
same,Observed antifungal activity O,"Penicillium italicum; 250 ppm natamycin, 150 ppm prothioconazole or both, 26 days",5%
same,Observed antifungal activity O,"Penicillium italicum; 250 ppm natamycin, 150 ppm prothioconazole or both, 29 days",3%
same,Observed antifungal activity O,"Penicillium italicum; 250 ppm natamycin, 150 ppm prothioconazole or both, 34 days",0%
same,Observed antifungal activity O,"Penicillium italicum; 500 ppm natamycin, 600 ppm prothioconazole or both, 25 days",34%
same,Observed antifungal activity O,"Penicillium italicum; 500 ppm natamycin, 600 ppm prothioconazole or both, 28 days",27%
same,Observed antifungal activity O,"Penicillium italicum; 500 ppm natamycin, 600 ppm prothioconazole or both, 31 days",24%
same,Observed antifungal activity O,"Penicillium italicum; 500 ppm natamycin, 600 ppm prothioconazole or both, 34 days",24%
same,Observed antifungal activity O,"Botrytis cinerea [3]; 5 days, natamycin 0.63 ppm, propiconazole 1.00 ppm or both",0%
same,Observed antifungal activity O,"Botrytis cinerea [3]; 5 days, natamycin 1.25 ppm, propiconazole 0.50 ppm, prothioconazole 0.13 ppm, or natamycin 1.25 ppm with either",0%
same,Observed antifungal activity O,"Botrytis cinerea [3]; 10 days, natamycin 1.25 ppm, prothioconazole 0.13 ppm or both",0%
same,Observed antifungal activity O,"Fusarium proliferatum [4]; 3 days, propiconazole 7.5 ppm or both",0%
same,Observed antifungal activity O,"Fusarium proliferatum [4]; 10 days, prothioconazole 0.5 ppm or both",0%
